Experimental data published in patent publication US20150336881A1, “AMIDE COMPOUND AND USE THEREOF FOR PEST CONTROL” (Sumitomo Chemical Company, Limited, priority 2012, published 2015).

What follows are molecules tested on Musca domestica (assay: Test Example 8: treated filter paper with sucrose bait, Musca domestica). Details: 0.7 ml on filter paper, female imagoes of Musca domestica, after 24 hours.
Format: in vivo
Experimental: Each of formulations of Compounds of Present Invention 1 to 5, 10, 18, 19, 25, 26, 60 and 68 and Intermediate Compound M6-1 as obtained in Formulation Example 5 was diluted with water, so as to have a concentration of the active ingredient of 500 ppm, to prepare a diluted liquid for test.
(§1) A filter paper having a diameter of 5.5 cm was spread on the bottom of a polyethylene cup having the same diameter and 0.7 ml of the diluted liquid for test was added dropwise onto the filter paper, and 30 mg of sucrose was uniformly placed as bait. Into the polyethylene cup, 10 female imagoes of Musca domestica were released, and the cup was sealed with a lid. After 24 hours, the life and death of Musca domestica was examined, and the mortality was calculated.

SMILES | mortality at 500 ppm [%]
CCSc1cc(C(F)(F)F)ccc1C(=O)Nc1ccc(C(F)(F)F)cc1 [Intermediate Compound M6-1, 2-ethylsulfanyl-4-trifluoromethyl-N-(4-trifluoromethyl-phenyl)-benzamide] | 100

The molecules below were run on Culex pipiens pallens (assay: Test Example 10: Culex pipiens pallens larvae in treated water). Details: 24 h; active ingredient concentration 3.5 ppm in water, last-instar larvae of Culex pipiens pallens, one day later.
Format: in vivo
Experimental: (§2) The formulations of Compounds of Present Invention 1 to 5, 8 to 11, 13, 18, 19, 25, 26, 44, 53 to 55, 59, 60, 68 to 74, 78, 86 to 88 and 90 and Intermediate Compounds M6-3, M6-4, M6-11, M6-12 and M6-23 as obtained in Formulation Example 5 were diluted with water, so as to have a concentration of the active ingredient of 500 ppm, to prepare a diluted liquid for test.
0.7 ml of the diluted liquid for test was added to 100 ml of ion-exchanged water (active ingredient concentration: 3.5 ppm). 20 last-instar larvae of Culex pipiens pallens were released into the solution. One day later, the life and death of the Culex pipiens pallens was examined, and the mortality of the pest was calculated.

SMILES | mortality at 3.5 ppm [%]
CCSc1cc(C(F)(F)F)ccc1C(=O)Nc1ccc(C(F)(F)C(F)(F)F)cc1 [Intermediate Compound M6-3, 2-ethylsulfanyl-N-(4-pentafluoroethyl-phenyl)-4-trifluoromethyl-benzamide] | ≥ 95
CCSc1cc(C(F)(F)F)ccc1C(=O)Nc1ccc(SC(F)(F)F)cc1 [Intermediate Compound M6-4, 2-ethylsulfanyl-N-(4-trifluoromethylsulfanyl-phenyl)-4-trifluoromethyl-benzamide] | ≥ 95

Each molecule was assayed on Blattella germanica (assay: Test Example 9: treated filter paper with sucrose bait, Blattella germanica). Details: 500 ppm, 0.7 ml on filter paper, male imagoes of Blattella germanica, after 6 days.
Format: in vivo
Experimental: The formulations of Compounds of Present Invention 3, 10 and 11 as obtained in Formulation Example 5 were diluted with water, so as to have a concentration of the active ingredient of 500 ppm, to prepare a diluted liquid for test.
as §1, with “2 male” for “10 female”, “Blattella germanica” for “Musca domestica”, “6 days,” for “24 hours,”

SMILES | mortality [%]
CCS(=O)(=O)c1cc(C(F)(F)F)ccc1C(=O)N(C)c1ccc(C(F)(F)C(F)(F)F)cc1 [compound 10] | 100
CCS(=O)(=O)c1cc(C(F)(F)F)ccc1C(=O)N(C)c1ccc(SC(F)(F)F)cc1 [compound 11] | 100

These molecules were tested on Adoxophyes orana fasciata (assay: Test Example 7: sprayed apple tree, Adoxophyes orana fasciata larvae released). Details: in vivo.
Experimental: as §2, with “14,” for “11, 13,”, “54,” for “44, 53 to”, “55,” for “55, 59,”, “74, 76 to” for “74,”, “85, 86,” for “86 to”, “M6-8 to M6-13” for “M6-3, M6-4, M6-11, M6-12 and M6-23”
On the other hand, an apple tree was planted in a plastic cup, and grown until the seventh-eighth true leaf was spread. To the apple tree was sprayed in an amount of 20 mL/cup of the diluted liquid for test. After the drug solution was dried, 60 first-instar Adoxophyes orana fasciata were released, and the plastic cup the bottom of which was cut off and on which a filter paper was put was upside-down and covered. After 7 days, the number of surviving insects was counted, and the mortality was calculated according to the following equation:
Mortality (%)=(Number of dead insects/Number of tested insects)×100.

SMILES | mortality [%]
CCS(=O)(=O)c1ccccc1C(=O)N(C)c1ccc(SC(F)(F)F)cc1 [compound 26] | 100
CCS(=O)(=O)c1cc(C(F)(F)F)ccc1C(=O)N(C)c1ccc(C(F)(F)C(F)(F)F)cc1 [compound 10] | 100
CCSc1ccccc1C(=O)N(C)c1ccc(C(F)(F)C(F)(F)F)cc1 [compound 18] | 100
CCS(=O)(=O)c1ccccc1C(=O)N(C)c1ccc(C(F)(F)C(F)(F)F)cc1 [compound 25] | 100
CCSc1cc(C(F)(F)F)ccc1C(=O)N(C)c1ccc(C(F)(F)F)c(Cl)c1 [compound 68] | 100
CCSc1cc(C(F)(F)F)ccc1C(=O)Nc1ccc(C(F)(F)F)cc1 [Intermediate Compound M6-1, 2-ethylsulfanyl-4-trifluoromethyl-N-(4-trifluoromethyl-phenyl)-benzamide] | 100
CCSc1ccccc1C(=O)N(C)c1ccc(SC(F)(F)F)cc1 [compound 19] | 100
CCSc1cc(C(F)(F)F)ccc1C(=O)N(C)c1ccc(OC(F)(F)F)c(Br)c1 [compound 60] | 100
